Converted amounts (≈) assume the structure as drawn.
Experiments:
Assay type in all cases: functional
[1] = tested on: Mycobacterium tuberculosis; assay: Antimycobacterial activity against multi drug resistant Mycobacterium tuberculosis 16833 assessed as reduction in bacterial growth by MABA analysis
[2] = tested on: Mycobacterium tuberculosis; assay: Antimycobacterial activity against multi drug resistant Mycobacterium tuberculosis 16995 assessed as reduction in bacterial growth by MABA analysis
[3] = tested on: Mycobacterium tuberculosis; assay: Antimycobacterial activity against multi drug resistant Mycobacterium tuberculosis assessed as reduction in bacterial growth by two-fold agar dilution method

SMILES	MIC [1] [µM]	MIC [2] [µM]	MIC [3] [µM]
O=C(NCc1ccc(N2CCN(c3ccc(F)cc3F)CC2)cc1)c1ccc([N+](=O)[O-])o1	4.16 (≈ 1.84 µg/mL)	3.19 (≈ 1.41 µg/mL)	–
O=C(/C=C(\O)c1cc(Cc2c(F)cc(F)cc2F)cn(Cc2ccccc2F)c1=O)C(=O)N1CCN(c2cccc3ccccc23)CC1	–	–	≤ 1.5
COc1ccc(N2CCN(c3ccc(CNC(=O)c4ccc([N+](=O)[O-])o4)cc3)CC2)cc1	9.16 (≈ 4 µg/mL)	9.16 (≈ 4 µg/mL)	–
O=C(NCc1ccc(N2CCN(c3ccc(F)cc3)CC2)cc1)c1ccc([N+](=O)[O-])o1	7.61 (≈ 3.23 µg/mL)	4.22 (≈ 1.79 µg/mL)	–
NNC(=O)c1ccncc1 [ISONIAZID]	0.06 (≈ 0.00823 µg/mL)	0.06 (≈ 0.00823 µg/mL)	–
CO[C@H]1/C=C/O[C@@]2(C)Oc3c(C)c(O)c4c(O)c(c(/C=N/N5CCN(C)CC5)c(O)c4c3C2=O)NC(=O)/C(C)=C\C=C\[C@H](C)[C@H](O)[C@@H](C)[C@@H](O)[C@@H](C)[C@H](OC(C)=O)[C@@H]1C [RIFAMPIN]	> 48.6	> 48.6	–

Source: ChEMBL document CHEMBL5214886, “An appraisal of anti-mycobacterial activity with structure-activity relationship of piperazine and its analogues: A review” (Eur J Med Chem, 2021)
